Marks after values point to notes of the source that are not given here.
Experiments:
[1] = tested on: COLO 205 cells; assay: Growth assay (cell counts) of COLO 205 human colon cancer cells; format: cell-based; settings: 10^−6 M NTX, 48 hr
Method: (§1) HT-29, WiDr, and COLO 205 cell lines were obtained from the American Type Culture Collection (Rockville, Md.). HT-29 cells were grown in McCoy's 5A media (modified), WiDr cells in Minimum Essential Media, and COLO 205 cells in RPMI 1640 media; all media contained 10% fetal calf serum, 2 mM […], 1.2% sodium bicarbonate and antibiotics (11 Units/ml penicillin, 10 μg/ml streptomycin, 10 μg/ml neomycin) in a humidified atmosphere of 7% CO2/93% air at 37° C. In some examples, cultures of HT-29 cells were maintained in McCoy's 5A media without fetal calf serum.
(§2) Cells were seeded at equivalent amounts into 75 cm^2 flasks or into 9.6 cm^2 wells (6-well plates, Falcon) and were counted 24 hr later to determine plating efficiency. Drugs or sterile water were added beginning 24 hr after seeding (=0 hours) and both media and drugs were changed daily. All drugs were prepared in sterile water and dilutions represent final concentrations of the compounds. At appropriate times, cells were harvested with 0.05% trypsin/0.53 mM EDTA, centrifuged, and counted with a hemacytometer at 200×. Cell viability was determined by trypan blue staining. At least 2 aliquots/flask or well were counted and 2 flasks or wells/time point/treatment group were sampled.
(§3) To examine the ubiquity of opioid activity with respect to colon cancer, two other colon cancer cell lines were investigated: COLO 205 and WiDr.

[2] = tested on: HT-29 human colon cancer cells; assay: HT-29 human colon tumor xenografts in nude mice treated with 0.1 mg/kg naltrexone; format: in vivo
Method: HT-29 human colon cancer cells, purchased from the American Type Culture Collection (Rockville, Md.), were grown in McCoy's 5A Modified Medium containing 10% fetal calf serum, L-glutamine (2 mM), penicillin (10 units/ml), and streptomycin ([…]) in an atmosphere of 7% CO2 at 37° C. Cell viability was determined by the trypan blue exclusion test. Five- to six-week-old male athymic nude mice, obtained from the National Cancer Institute (Frederick, Md.), were injected subcutaneously over the right shoulder with 1×10^6 log phase HT-29 cells in a 0.5 ml suspension of McCoy's media. The day of tumor cell inoculation was considered day 0. The mice were evaluated daily and the date that the tumor became palpable was recorded. The time of “initial” appearance of a tumor was considered to be the day when tumor volume was 5 mm^3 or larger. Individual tumors were measured with vernier calipers every 2 days. Measurements of the two largest perpendicular dimensions were recorded and tumors volume was calculated using the formula: length×(width)^2×0.5 [Osieka, R., D. P. Houchens, and A. Goldin. Chemotherapy of human colon cancer xenografts in athymic nude mice. Cancer 40:2640-2650, (1977)]. All mice were euthanized and necropsied 50 days after tumor cell inoculation. Tumor tissue for receptor binding assays and radioimmunoassays was rapidly frozen in liquid nitrogen and stored at −70° C. until assayed.
Treatment was initiated on the day of tumor cell inoculation. […] Animals were weighed-weekly and appropriate dosage adjustments made.
Latencies until tumor appearance were analyzed using one-way analysis of variance; subsequent comparisons were made with the Newman-Keuls test. The number of mice developing tumors was expressed as a ratio of the total number of mice in the group. Comparisons between groups were made with chi-square tests.
The growth of tumors was compared for each mouse beginning on the day of initial tumor appearance and every 3 days thereafter until the termination of the experiment. Tumor measurements on these days were analyzed using one-way analysis of variance and Newman-Keuls test. Body weights were compared with a two-factor analysis of variance.

[3] = target: T1, ζ-opioid receptor (Homo sapiens, UniProt Q9NZT2); assay: Competition for binding of [3H][Met5]enkephalin (4.0 nM) in nuclear homogenates of HT-29 human colon tumors; parameters: from tissue; host or cells: HT-29 human colon tumor xenografts grown in athymic nude mice; nuclear (P1) and other subcellular fractions
T1 sequence (Q9NZT2 1-677): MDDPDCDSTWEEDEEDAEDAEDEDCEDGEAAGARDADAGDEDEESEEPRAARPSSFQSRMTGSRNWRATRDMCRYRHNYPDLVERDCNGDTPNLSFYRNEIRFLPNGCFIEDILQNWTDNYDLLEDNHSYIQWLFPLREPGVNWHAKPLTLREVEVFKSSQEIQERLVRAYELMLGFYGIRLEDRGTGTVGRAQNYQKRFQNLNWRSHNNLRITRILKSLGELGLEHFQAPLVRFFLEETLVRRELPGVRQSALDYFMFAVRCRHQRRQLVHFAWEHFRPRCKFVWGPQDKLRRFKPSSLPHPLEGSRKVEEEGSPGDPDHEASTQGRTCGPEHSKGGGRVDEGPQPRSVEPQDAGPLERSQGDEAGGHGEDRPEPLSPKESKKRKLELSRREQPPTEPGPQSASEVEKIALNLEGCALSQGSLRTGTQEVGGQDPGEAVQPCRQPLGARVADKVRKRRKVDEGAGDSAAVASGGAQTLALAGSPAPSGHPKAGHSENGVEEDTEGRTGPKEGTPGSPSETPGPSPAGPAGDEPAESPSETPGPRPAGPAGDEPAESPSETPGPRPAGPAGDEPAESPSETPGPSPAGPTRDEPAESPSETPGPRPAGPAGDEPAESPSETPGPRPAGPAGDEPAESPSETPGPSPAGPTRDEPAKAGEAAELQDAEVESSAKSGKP

[4] = tested on: HT-29 cells; assay: Growth assay (cell counts) of HT-29 human colon cancer cells in culture; format: cell-based
Method: In some examples, cultures of HT-29 cells were maintained in McCoy's 5A media without fetal calf serum.
as §2

[5] = target: T1, ζ-opioid receptor; assay: [3H]-[Met5]-enkephalin binding of HT-29 tumor homogenates from nude mice treated with 0.1 mg/kg NTX; parameters: from tissue; host or cells: HT-29 human colon tumor xenografts grown in athymic nude mice; nuclear (P1) and other subcellular fractions
Method: Endogenous opioid systems regulate growth of neural tumor cells in culture. Brain Res. 490:1313-1318 (1988)].
Receptor binding data were analyzed with a Lundon (Saturation Isotherm Binding Analysis) computer program (Lundon Software, Cleveland, Ohio). This analysis utilizes non-linear least squares regression. Saturation curves and Scatchard plots were computed and plotted directly by this program.

[6] = tested on: WiDr cells; assay: Growth assay (cell counts) of WiDr human colon cancer cells; format: cell-based; settings: 10^−6 M NTX, 48 hr
Method: as §1, §2, §3

[7] = tested on: neuroblastoma; settings: cited from earlier work

**Q.** Which “more cells than control cultures” value [1] does the source give for `O=C1CC[C@@]2(O)[C@H]3Cc4ccc(O)c5c4[C@@]2(CCN3CC2CC2)[C@H]1O5` [naltrexone] here?
**A.** 76%

**Q.** What about the “Number of mice with tumors 19 days after inoculation” value ([2]; 0.1 mg/kg NTX daily) of the same molecule?
**A.** 3/10**

**Q.** What about the “Number of mice with tumors 36 days after inoculation” value ([2]; 0.1 mg/kg NTX daily) of the same molecule?
**A.** 6/10*

**Q.** And the “Number of mice with tumors 50 days after inoculation” value ([2]; 0.1 mg/kg NTX daily)?
**A.** 8/10

**Q.** And the “Latency (days) for initial tumor appearance” value ([2]; 0.1 mg/kg NTX daily s.c.)?
**A.** 23.1 ± 2.9 days

**Q.** And the “Latency (days) for initial tumor appearance (Range)” value ([2]; 0.1 mg/kg NTX daily s.c.)?
**A.** (14-37) days

**Q.** What about the “Latency (days) for palpable tumor” value ([2]; 0.1 mg/kg NTX daily s.c. from inoculation) of the same molecule?
**A.** 17.0 ± 2.8 days

**Q.** And the “behavioral differences (e.g. hyperactivity) versus control” value ([2]; 0.1 mg/kg naltrexone)?
**A.** no behavioral differences

**Q.** What about the “interval between palpable tumors and initial tumor appearance versus control” value ([2]; 0.1 mg/kg naltrexone) of the same molecule?
**A.** similar

**Q.** What about the “mean latency prior to palpable tumor appearance increased compared to control” value ([2]; 0.1 mg/kg naltrexone) of the same molecule?
**A.** 2.4 fold

**Q.** What about the “range in latency until initial tumor appearance greater than control” value ([2]; 0.1 mg/kg naltrexone) of the same molecule?
**A.** up to 2 fold

**Q.** And the “size of tumors after initial tumor appearance versus control” value ([2]; 0.1 mg/kg naltrexone)?
**A.** did not differ

**Q.** What about the “body weights versus control animals” value ([2]; 0.1 mg/kg naltrexone, throughout the experiment) of the same molecule?
**A.** comparable

**Q.** What about the mice with tumors ([2]; day 36, 0.1 mg/kg) of the same molecule?
**A.** 60%

**Q.** And the “mice that still did not have tumors” value ([2]; day 50, 0.1 mg/kg)?
**A.** 20%

**Q.** And the “mice with tumors of 5 mm^3 or larger” value ([2]; nineteen days after inoculation, 0.1 mg/kg)?
**A.** 30%

**Q.** And the “number of mice with palpable tumors” value ([2]; ten days after tumor cell inoculation, 0.1 mg/kg)?
**A.** 2

**Q.** And the IC50 ([3]; 4.0 nM [3H][Met5]enkephalin, read-out: IC50)?
**A.** 90.5 ± 3.5 nM

**Q.** And the Ki ([3]; calculated from IC50 by Cheng and Prusoff, read-out: KI)?
**A.** 69.6 ± 2.7 nM

**Q.** What about the “effect on cell growth in serum-free media” value [4] of the same molecule?
**A.** significant increase in cell number

**Q.** And the “increase in cell number compared to control cultures” value ([4]; 10^−6 M NTX, 12 hr)?
**A.** 38%

**Q.** What about the “binding affinity (Kd) versus control levels” value ([5]; 0.1 mg/kg naltrexone) of the same molecule?
**A.** did not differ

**Q.** What about the “binding capacity (Bmax) decreased from control values” ([5]; 0.1 mg/kg naltrexone) of the same molecule?
**A.** 6.6 fold

**Q.** What about the “Bmax, fmol/mg protein” value ([5]; tumors from mice treated with 0.1 mg/kg NTX) of the same molecule?
**A.** 52.9 ± 12.1 fmol/mg protein

**Q.** What about the “more cells than control cultures” value [6] of the same molecule?
**A.** 68%

**Q.** And the “duration of opioid receptor blockade” value ([7]; 0.1 mg/kg single daily injection)?
**A.** 4-6 h/day

**Q.** And the “course of tumorigenesis and survival” value ([7]; chronic receptor blockade: 10 mg/kg per day or 0.1 mg/kg 4 times daily)?
**A.** accelerated the course of tumorigenesis and shortened survival

**Q.** And the “tumor effect (e.g. tumor incidence)” value ([7]; single daily injection of 0.1 mg/kg)?
**A.** antitumor effect

Reference: patent US6737397B1, “Control of cancer growth through the interaction of [MET5]-enkephalin and the zeta receptor” (The Penn State Research Foundation, priority 1996, dated 2004)
